≈ marks a conversion by molar mass, not a printed value. Read-outs that look alike come from different tables or passages of the source.
Legend:
[1] = Solution stability / decomposition studies
From the text: (§1) Figwe 3 Chemical stnruu of disulphonated aluminium phthalocyamne.

[2] = Stability of formulated product (shelf-life, reconstituted solution); settings: for pH of reconstituted solution: lyophilised product reconstituted with water
From the text: (§2) Brsh Jowbnl d Cancer ( ) 72, 210-218 ? […] Figwe 3 Chemical stnruu of disulphonated aluminium phthalocyamne.

[3] = system: B16 melanoma; assay: Anti-tumour activity against B16 melanoma; format: in vivo
From the text: as §2

[4] = system: P388 leukaemia; assay: Anti-tumour activity against P388 leukaemia; format: in vivo
From the text: as §2

[5] = cited from earlier work; for maximum tolerated dose (MTD): ref Judson et al., 1989
[6] = phase I studies; ref Sessa et al., 1991; cited from earlier work
[7] = Aqueous solubility; settings: for aqueous solubility (in words): water / aqueous solution
[8] = physchem
From the text: as §2

[9] = set-up: method as in Torres-Labandeira et al., 1991; settings: 40% aqueous solution of HPCD; ref Torres-Labandeira et al., 1991; cited from earlier work
[10] = Preclinical toxicology studies
From the text: as §1

[11] = system: LOX amelanotic melanoma; set-up: method as in Waud et al., 1992; settings: xenograft in athymic mice; ref Waud et al., 1992; cited from earlier work
[12] = system: MX-1 mammary carcinoma; set-up: method as in Waud et al., 1992; settings: xenograft in athymic mice; ref Waud et al., 1992; cited from earlier work
[13] = system: NCI-H82; set-up: method as in Waud et al., 1992; settings: xenograft in athymic mice; ref Waud et al., 1992; cited from earlier work
[14] = system: solid tumour models; assay: Activity in solid tumour models; format: in vivo; settings: several solid tumour models
From the text: as §2

[15] = cited from earlier work
[16] = physchem; remark: listed apart in the source
[17] = Clinical pharmacokinetics in phase I trial; format: in vivo, human
From the text: as §2

[18] = Murine anti-tumour tests; format: in vivo
From the text: as §2

[19] = system: gliomas; set-up: method as in Stevens and Newlands, 1993; settings: daily for five consecutive days; ref Stevens and Newlands, 1993; cited from earlier work
[20] = system: colon 26; assay: Anti-tumour activity against colon 26 tumour; format: in vivo
From the text: as §2

[21] = system: DNA polymerase-alpha; set-up: method as in Bucknall et al., 1973; Taguchi et al., 1978; settings: ref Bucknall et al., 1973; Taguchi et al., 1978; cited from earlier work
[22] = set-up: method as in de Vries et al., 1993; settings: aqueous solution; ref de Vries et al., 1993; cited from earlier work
[23] = Phase I/II clinical trials: toxicity; format: in vivo, human; settings: phase I trial
From the text: as §2

[24] = Compatibility and adsorption studies with administration sets; format: physicochemical
From the text: as §2

[25] = data from the drug's discoverers; ref Pettit et al., 1982; cited from earlier work
[26] = system: L1210 leukaemia; assay: Anti-tumour activity against L1210 leukaemia; format: in vivo
From the text: as §2

[27] = Preliminary murine toxicological study; format: in vivo; settings: PET solvent system formulation
From the text: as §2

[28] = In vitro anti-tumour activity; format: cell-based
From the text: as §2

[29] = In vivo anti-tumour activity
From the text: as §2

[30] = system: acid or alkaline phosphatase; assay: Incubation of prodrug with phosphatase; format: biochemical; settings: incubated with acid or alkaline phosphatase
From the text: as §2

C[C@@]1(CO)[C@H](O)CC[C@@]2(C)[C@H]1CC[C@H]1C[C@@H]3C[C@@]12CC[C@]3(O)COC(=O)CN.Cl [aphidicolin glycinate]
pH of maximal stability ([1]; pH 2.0-9.0 at 40-C): 4.5
time diluted solution is stable ([2]; 1 mg ml-1 in 5% dextrose or 0.9% sodium chloride injection, HPLC): more than 24 h
time reconstituted solution is stable ([2]; 100 mg ml-1 in water for injection): at least 24 h
anti-tumour activity [3]: active
anti-tumour activity [4]: active
dose at which toxicity was dose limiting ([5]; 1 h infusion for five consecutive days every 3 weeks, ref Sessa et al., 1991): 2250 mg m-2
dose at which toxicity was dose limiting ([5]; 24 h infusion every 3 weeks, ref Sessa et al., 1991): 4500 mg m-2
dose-limiting toxicity ([5]; both phase I studies, ref Sessa et al., 1991): Local toxicity
pharmacologically active levels [6]: had not been achieved
solubility of hydrochloride salt of the glycine amino group ([7]; hydrochloride salt): greater than 100 mgnml'

O=C1N[C@H]2[C@H](O)[C@H](O)[C@@H](O)[C@H](O)[C@@H]2c2cc3c(c(O)c21)OCO3 [Pancratistatin]
solubility ([8]; aqueous solubilisation with complexing agent): 1000 µg/mL (≈ 3.07 mM)
solubility ([8]; solubility in a range of solvents): < 400 µg/mL
pH of reconstituted solution [2]: 6.3
solubility in hydroxypropyl-beta-cyclodextrin solution [9]: approximately 1.2 mg ml-'

CCCCCCCCCCCCCCCCCCOCC1(COP(=O)([O-])OCC[N+](C)(C)C)CCCO1 (centres unmarked) [SRI 62-834]
time formulation is chemically and physically stable ([2]; Intralipid formulation): 3 months
local tolerance of simple aqueous formulations ([10]; simple aqueous formulations): irritation at the site of injection
solubility in aqueous systems ([7]; at 20C): 50 % (w/ v)

NC(=O)c1ncn2c(=O)n(CCCl)nnc12 [Mitozolomide, mitozolomide, reference compound]
toxicity for which trials were terminated ([5]; phase I and phase II clinical trials): unpredictable throm- bocYtopenia

CNC(=O)OCc1nc(SC)n(C)c1COC(=O)NC.Cl [Carmethizole hydrochloride, carmethizole hydrochloride]
pH of maximal stability ([1]; about pH 1 or lower): ~1
teA (time to 10% decomposition) ([2]; freeze-dried product reconstituted with water for injection, solution pH 2.8): ~5.4 h
pH of reconstituted solution [2]: 2.8
toxicity observed ([10]; preclinical toxicology studies): signifiant cardiotoxicity
anti-tumour activity [11]: active
anti-tumour activity [12]: active
anti-tumour activity [13]: active
solubility of the hydrochloride salt ([7]; hydrochloride salt): greater than 500 mg ml- 1

CC(C)NC(=O)OCc1c(COC(=O)NC(C)C)c(-c2ccc(Cl)c(Cl)c2)n2c1CCC2 [NSC-278214, reference compound]
half-life ([1]; 66% aqueous acetone at 25 C): around 5 mi
anti-tumour activity [14]: activity
drug decomposed ([15]; in 2 h, 10% fat emulsion (Intralipid), 0.7 mg ml-1, 1% DMA, 5% Cremophor EL, ref El-Sayed and Repta 1983): about 10%
aqueous solubility (in words) [7]: negligible

ClCC[N+]12CC[N+](CCCl)(CC1)C2.O=C([O-])/C=C\C(=O)O.O=C([O-])/C=C\C(=O)O [Dabis maleate, 1,4-bis (2'-chloroethyl)-1,4-diazabicyclo-[2.2.1] heptane dimaleate]
recommended phase II dose ([5]; 6 h infusion for 6 weeks followed by 3 week drug vacation, ref Verweij et al., 1992): 500 mg m2 week-'
recommended dose for phase II trials ([5]; once every 3 weeks, ref van der Burg et al., 1991): 750 mg m-2
dose-limiting toxicity ([5]; phase I, once every 3 weeks, ref van der Burg et al., 1991): neurotoxicity
toxicity of prolonged infusion ([5]; prolonged infusion, ref Verweij et al., 1992): neurotoxicity consisting of parasthesia and ataxia

CCN(CC)c1ccc2cc(C(=O)Nc3ccc4[nH]c(C(=O)N5C[C@@H](CCl)c6c5cc(OC(=O)Nc5ccccc5)c5[nH]cc(C)c65)cc4c3)oc2c1 [Carzelesin]
solubility in common pharmaceutically acceptable solvents [8]: very low
time drug is stable in PET vehicle ([2]; stored at -30C, PEG 400/polysorbate 80/ethanol): at least 1 year

CO[C@@H](/C(C)=C/C=C/C(C)=C/c1coc(C)n1)[C@@H](C)[C@@H]1C[C@H](O)[C@@]2(C)O[C@@H]2/C=C/[C@@H](C)[C@H]2C[C@H](CC(=O)O2)C[C@@H]2O[C@H]2C(=O)O1 [Rhizoxin]
solubility in t-butanol and t-butanol-water mixtures ([8]; t-butanol, t-butanol-water): excellent
increase in degradation in presence of light vs protected from light ([1]; pH 5.6): approximately 2 -fold
solubility [16]: 12 µg/mL (≈ 0.0192 mM)

CS(=O)(=O)OCCN(CCCl)c1ccc(C(=O)N[C@@H](CCC(=O)O)C(=O)O)cc1 [Springer prodrug]
time until degradation apparent ([2]; lyophilised material at 20-25C): ≤ 2 weeks
time lyophilised material is stable ([2]; stored at 4C): up to 1 year

Cn1nnc2c(C(N)=O)ncn2c1=O [Temozolomide]
solubility in DMSO relative to mitozolomide ([8]; DMSO): less soluble
toxicity relative to mitozolomide ([10]; in vivo): ess toxi
bioavailability ([17]; human, in vivo, patients, 200 mg m2, oral vs i.v., read-out: bioavailability of oral formulation): ~100%
dose dependency in the pharmacokinetics ([17]; oral formulation, dose escalations): no evidence of dose dependency
absorption of oral formulation ([17]; patients, oral): rapid
potency relative to mitozolomide [18]: less potent
activity against gliomas [19]: evident

C[C@@]1(CO)[C@H](O)CC[C@@]2(C)[C@H]1CC[C@H]1C[C@@H]3C[C@@]12CC[C@]3(O)CO [Aphidicolin, reference compound]
anti-tumour activity [3]: observed
anti-tumour activity [20]: observed
effect on DNA polymerase [21]: inhibit
solubility [16]: ~250 µg/mL (≈ 0.739 mM)

Cn1c(/C=C/CO)c(CO)c2c1C(=O)C=C(N1CC1)C2=O [E.O.9]
time reconstituted solution is stable ([2]; 0.5 mg ml-1 in 0.9% sodium chloride, room temperature): at least 24 h
pH of maximum stability [22]: around 9.5
solubility [16]: 200 to 500 µg/mL (≈ 0.694 to 1.73 mM)
aqueous solubility (in words) [7]: lmited

COc1ccc(O)cc1 [4-Hydroxyanisole]
toxicity observed ([23]; intravenous, ethanol vehicle): Hepatotoxicity was observed

CCC/C=C/C=C/C(=O)O[C@H]1/C(=C/C(=O)OC)C[C@H]2C[C@H]([C@@H](C)O)OC(=O)C[C@H](O)C[C@@H]3C[C@H](OC(C)=O)C(C)(C)[C@](O)(C[C@@H]4C/C(=C/C(=O)OC)C[C@H](/C=C/C(C)(C)[C@]1(O)O2)O4)O3 [bryostatin 1]
percentage of ethanol below which the drug precipitated ([8]; ethanolic solutions at predicted formulation concentrations): below 50%
adsorption onto administration set surfaces ([24]; PTFE-lined sets, ethanol concentration below 50%): significant
adsorption onto administration set surfaces ([24]; plastic not PTFE-lined (e.g. PVC)): exten- sive adsorption
local toxicity thought to be associated with high ethanol concentration ([23]; ethanol solution): phlebitis
major toxicity ([23]; with or without in-line dilution): general myalgia
aqueous solubility (in words) [25]: lmited

CN(CO)c1nc(N(C)CO)nc(N(C)CO)n1 [Trimelamol, N2,N4,N6-trihydroxymethyl-N2,N4,N6-trimethylmelamine]
solubility ([8]; 95% ethanol): ~45000 µg/mL (≈ 174 mM)
solubility ([8]; DMA): ~375000 µg/mL (≈ 1450 mM)
solubility ([8]; propylene glycol): ~15000 µg/mL (≈ 58.1 mM)
pH of maximum stability ([1]; HPLC, 25C, pH 3-12.5): 10-11
half-life ([1]; buffer, pH 10): > 30 h
anti-tumour activity [3]: active
anti-tumour activity [20]: active
anti-tumour activity [4]: active
anti-tumour activity [26]: active
t/2 of reconstituted freeze-dried formulation ([15]; 50% aqueous PEG 3400, 30 mg ml-1, not further diluted, ref Gibson et al. (1990)): 46.3 h
solubility ([16]; water): 10000 µg/mL (≈ 38.7 mM)
maximum tolerated dose (MTD) ([5]; single administration): 2400 mgm-2
maximum tolerated dose (MTD) ([5]; thrice-daily schedule): 1000 mg m2

COc1ccc(/C=C\c2cc(OC)c(OC)c(OC)c2)cc1O [Combretastatin A4]
local tolerance [27]: severe irritation at the injection site
in vitro anti-tumour activity [28]: excellent
in vivo activity [29]: no significant

COc1ccc(/C=C\c2cc(OC)c(OC)c(OC)c2)cc1OP(=O)(O)O [phosphate ester]
stability in aqueous solutions (in words) ([1]; aqueous solutions): adequate
in vivo activity [29]: inactive
release of parent molecule [30]: released the parent mokcule
aqueous solubility (in words) [7]: adequate

From PMC2034157, “CRC/EORTC/NCI Joint Formulation Working Party: experiences in the formulation of investigational cytotoxic drugs” (British Journal of Cancer, 1995)
